Measured values taken from patent publication US20250122191A1, “COMPOUNDS AS BCL-2 INHIBITORS” (Fochon Biosciences, Ltd, priority 2021, published 2025).

Each compound was assayed on RS4;11-BCL-2 G101V cells (assay: Cell proliferation assay (MTS), RS4;11-BCL-2 G101V engineered cells). Details: Homo sapiens, 120 h, read-out: RS4, 11 BCL2-G101V IC50.
Assay type: cell-based
Source text: MTS testing kit was purchased from Promega (Madison, WI, USA). The RPMI-1640, Fetal bovine serum and Penicillin-Streptomycin were purchased from BI (Biological Industries, Beit Haemek, Israel). Puromycin was purchased from Beyotime (shanghai, China). Dimethyl sulfoxide (DMSO) was purchased from Sigma (St. Louis., MO, USA). RS4;11-BCL-2 G101V (Cobioer Lot. #: CBD2021063013P4), RS4;11-BCL-2 D103E (Cobioer Lot. #: CBD2021063013P4), RS4;11-BCL-2 D103Y (Cobioer Lot. #: CBD2022012101P4) and RS4;11-BCL-2 F104L (Cobioer Lot. #: CBD2021063014P4) cells were cultured in RPMI1640 supplemented with 1 ug/mL puromycin, 100 U/mL Penicillin-Streptomycin and 10% FBS.
To investigate whether a compound is able to inhibit the activity of BCL-2 mutation in cells, a mechanism-based assay using engineered cell lines stably overexpressing BCL-2 mutation (RS4;11-BCL-2 G101V, RS4;11-BCL-2 D103E, RS4;11-BCL-2 D103Y, and RS4;11-BCL-2 F104L) was developed. In this assay, the inhibition of BCL-2 mutation was reflected by the inhibition of cell proliferation of engineered RS4;11 cells. Cells were plated into 96-well plates at optimized cell density (RS4;11-BCL-2 G101V: 5000 cells/well; RS4;11-BCL-2 D103E: 7500 cells/well; RS4;11-BCL-2 D103Y: 7500 cells/well; RS4;11-BCL-2 F104L: 5000 cells/well). Plates were incubated at 37° C., with 5% CO2 for 4 h (RS4;11-BCL-2 G101V, RS4;11-BCL-2 F104L) and 24 h (RS4;11-BCL-2 D103E, RS4;11-BCL-2 D103Y), respectively. Compounds were serially diluted and added to the plates with the final concentrations of 10000, 3333.3, 1111.1, 370.4, 123.5, 41.2, 13.7, 4.6 and 1.5 nM. Plates were incubated at 37° C., with 5% CO2 for 120 h (RS4; 11-BCL-2 G101V, RS4; 11-BCL-2 F104L) and 72 h (RS4;11-BCL-2 D103E, RS4;11-BCL-2 D103Y), respectively. 20 μl MTS was added into each well and the plates were incubated at 37° C., with 5% CO2 exactly for 2 h. The absorbance was measured by a microplate reader at 490 nm. IC50 values were calculated using GraphPad Prism 8.0 software.

IC50, 1 nM:
COc1nc2[nH]cc(F)c2cc1Oc1cc(N2CCC3(CC2)CC(N2CCN(CC4CCOCC4)C[C@H]2c2ccccc2C(C)C)C3)ccc1C(=O)NS(=O)(=O)c1cnc(NC[C@H]2CC[C@](C)(O)CC2)c([N+](=O)[O-])c1 [Example 317, 2-((3-fluoro-6-methoxy-1H-pyrrolo[2,3-b]pyridin-5-yl)oxy)-N-((6-((((1r,4r)-4-hydroxy-4-methylcyclohexyl)methyl)amino)-5-nitropyridin-3-yl)sulfonyl)-4-(2-((R)-2-(2-isopropylphenyl)-4-((tetrahydro-2H-pyran-4-yl)methyl)piperazin-1-yl)-7-azaspiro[3.5]nonan-7-yl)benzamide]
COc1cc(CN2CCN(C3CC4(CCN(c5ccc(C(=O)NS(=O)(=O)c6cnc(NC[C@H]7CC[C@](C)(O)CC7)c([N+](=O)[O-])c6)c(Oc6cnc7[nH]cc(F)c7c6)c5)CC4)C3)[C@H](c3ccccc3C(C)C)C2)ncc1C1CC1 [Example 251, 4-(2-((R)-4-((5-cyclopropyl-4-methoxypyridin-2-yl)methyl)-2-(2-isopropylphenyl)piperazin-1-yl)-7-azaspiro [3.5]nonan-7-yl)-2-((3-fluoro-1H-pyrrolo[2,3-b]pyridin-5-yl)oxy)-N-((6-((((1r,4r)-4-hydroxy-4-methylcyclohexyl)methyl)amino)-5-nitropyridin-3-yl)sulfonyl)benzamide]
COc1ccc(CN2CCN(C3CC4(CCN(c5ccc(C(=O)NS(=O)(=O)c6cnc(NC[C@H]7CC[C@](C)(O)CC7)c([N+](=O)[O-])c6)c(Oc6cc7c(F)c[nH]c7nc6OC)c5)CC4)C3)[C@H](c3ccccc3C3CC3)C2)cc1 [Example 52, 4-(2-((R)-2-(2-cyclopropylphenyl)-4-(4-methoxybenzyl)piperazin-1-yl)-7-azaspiro[3.5]nonan-7-yl)-2-((3-fluoro-6-methoxy-1H-pyrrolo[2,3-b]pyridin-5-yl)oxy)-N-((6-((((1r,4r)-4-hydroxy-4-methylcyclohexyl)methyl)amino)-5-nitropyridin-3-yl)sulfonyl)benzamide]
CC(C)c1ccccc1[C@@H]1CN(C)CCN1C1CC2(CCN(c3ccc(C(=O)NS(=O)(=O)c4cnc(NC[C@H]5CC[C@](C)(O)CC5)c([N+](=O)[O-])c4)c(Oc4cnc5[nH]cc(F)c5c4)c3)CC2)C1 [Example 139, 2-((3-fluoro-1H-pyrrolo[2,3-b]pyridin-5-yl)oxy)-N-((6-((((1r,4r)-4-hydroxy-4-methylcyclohexyl)methyl)amino)-5-nitropyridin-3-yl)sulfonyl)-4-(2-((R)-2-(2-isopropylphenyl)-4-methylpiperazin-1-yl)-7-azaspiro[3.5]nonan-7-yl)benzamide]
COc1ncc(CN2CCN(C3CC4(CCN(c5ccc(C(=O)NS(=O)(=O)c6cnc(NC[C@H]7CC[C@](C)(O)CC7)c([N+](=O)[O-])c6)c(Oc6cc7c(F)c[nH]c7nc6OC)c5)CC4)C3)[C@H](c3ccccc3C(C)C)C2)cn1 [Example 359, 2-((3-fluoro-6-methoxy-1H-pyrrolo[2,3-b]pyridin-5-yl)oxy)-N-((6-((((1r,4r)-4-hydroxy-4-methylcyclohexyl)methyl)amino)-5-nitropyridin-3-yl)sulfonyl)-4-(2-((R)-2-(2-isopropylphenyl)-4-((2-methoxypyrimidin-5-yl)methyl)piperazin-1-yl)-7-azaspiro[3.5]nonan-7-yl)benzamide]
CC(C)c1ccccc1[C@@H]1CN(C2CC2)CCN1C1CC2(CCN(c3ccc(C(=O)NS(=O)(=O)c4cnc(NC[C@H]5CC[C@](C)(O)CC5)c([N+](=O)[O-])c4)c(Oc4cnc5[nH]cc(F)c5c4)c3)CC2)C1 [Example 145, 4-(2-((R)-4-cyclopropyl-2-(2-isopropylphenyl)piperazin-1-yl)-7-azaspiro[3.5]nonan-7-yl)-2-((3-fluoro-1H-pyrrolo[2,3-b]pyridin-5-yl)oxy)-N-((6-((((1r,4r)-4-hydroxy-4-methylcyclohexyl)methyl)amino)-5-nitropyridin-3-yl)sulfonyl)benzamide]
CC(C)c1ccccc1[C@@H]1CN(Cc2ccc3c(c2)OC(F)(F)O3)CCN1C1CC2(CCN(c3ccc(C(=O)NS(=O)(=O)c4cnc(NC[C@H]5CC[C@](C)(O)CC5)c([N+](=O)[O-])c4)c(Oc4cnc5[nH]cc(F)c5c4)c3)CC2)C1 [Example 352, 4-(2-((R)-4-((2,2-difluorobenzo[d][1,3]dioxol-5-yl)methyl)-2-(2-isopropylphenyl)piperazin-1-yl)-7-azaspiro[3.5]nonan-7-yl)-2-((3-fluoro-1H-pyrrolo [2,3-b]pyridin-5-yl)oxy)-N-((6-((((1r,4r)-4-hydroxy-4-methylcyclohexyl)methyl)amino)-5-nitropyridin-3-yl)sulfonyl)benzamide]
COc1nc2[nH]cc(F)c2cc1Oc1cc(N2CCC3(CC2)CC(N2CCN(C4CCC(O)CC4)C[C@H]2c2ccccc2C(C)C)C3)ccc1C(=O)NS(=O)(=O)c1cnc(NC[C@H]2CC[C@](C)(O)CC2)c([N+](=O)[O-])c1 (single isomer, unassigned) [Example 332]
COc1nc2[nH]cc(F)c2cc1Oc1cc(N2CCC3(CC2)CC(N2CCN(C4COC4)C[C@H]2c2ccccc2C(C)C)C3)ccc1C(=O)NS(=O)(=O)c1cnc(NC[C@H]2CC[C@](C)(O)CC2)c([N+](=O)[O-])c1 [Example 131, 2-((3-fluoro-6-methoxy-1H-pyrrolo[2,3-b]pyridin-5-yl)oxy)-N-((6-((((1r,4r)-4-hydroxy-4-methylcyclohexyl)methyl)amino)-5-nitropyridin-3-yl)sulfonyl)-4-(2-((R)-2-(2-isopropylphenyl)-4-(oxetan-3-yl)piperazin-1-yl)-7-azaspiro[3.5]nonan-7-yl)benzamide]
COc1nc2[nH]cc(F)c2cc1Oc1cc(N2CCC3(CC2)CC(N2CCN(C4CC4)C[C@H]2c2ccccc2C(C)C)C3)ccc1C(=O)NS(=O)(=O)c1cnc(NC[C@H]2CC[C@](C)(O)CC2)c([N+](=O)[O-])c1 [Example 143, 4-(2-((R)-4-cyclopropyl-2-(2-isopropylphenyl)piperazin-1-yl)-7-azaspiro[3.5]nonan-7-yl)-2-((3-fluoro-6-methoxy-1H-pyrrolo[2,3-b]pyridin-5-yl)oxy)-N-((6-((((1r,4r)-4-hydroxy-4-methylcyclohexyl)methyl)amino)-5-nitropyridin-3-yl)sulfonyl)benzamide]
COc1ncc(CN2CCN(C3CC4(CCN(c5ccc(C(=O)NS(=O)(=O)c6cnc(NC[C@H]7CC[C@](C)(O)CC7)c([N+](=O)[O-])c6)c(Oc6cnc7[nH]cc(F)c7c6)c5)CC4)C3)[C@H](c3ccccc3C(C)C)C2)cn1 [Example 360, 2-((3-fluoro-1H-pyrrolo[2,3-b]pyridin-5-yl)oxy)-N-((6-((((1r,4r)-4-hydroxy-4-methylcyclohexyl)methyl)amino)-5-nitropyridin-3-yl)sulfonyl)-4-(2-((R)-2-(2-isopropylphenyl)-4-((2-methoxypyrimidin-5-yl)methyl)piperazin-1-yl)-7-azaspiro[3.5]nonan-7-yl)benzamide]
CC(C)c1ccccc1[C@@H]1CN(C2CCC(O)CC2)CCN1C1CC2(CCN(c3ccc(C(=O)NS(=O)(=O)c4cnc(NC[C@H]5CC[C@](C)(O)CC5)c([N+](=O)[O-])c4)c(Oc4cnc5[nH]cc(F)c5c4)c3)CC2)C1 (stereo partly drawn) [Example 333, 2-((3-fluoro-1H-pyrrolo[2,3-b]pyridin-5-yl)oxy)-N-((6-((((1r,4r)-4-hydroxy-4-methylcyclohexyl)methyl)amino)-5-nitropyridin-3-yl)sulfonyl)-4-(2-((R)-4-(4-hydroxycyclohexyl)-2-(2-isopropylphenyl)piperazin-1-yl)-7-azaspiro [3.5]nonan-7-yl)benzamide]
COc1nc2[nH]cc(F)c2cc1Oc1cc(N2CCC3(CC2)CC(N2CCN(Cc4ccc(C#N)cc4)C[C@H]2c2ccccc2C(C)C)C3)ccc1C(=O)NS(=O)(=O)c1cnc(NC[C@H]2CC[C@](C)(O)CC2)c([N+](=O)[O-])c1 [Example 236, 4-(2-((R)-4-(4-cyanobenzyl)-2-(2-isopropylphenyl)piperazin-1-yl)-7-azaspiro[3.5]nonan-7-yl)-2-((3-fluoro-6-methoxy-1H-pyrrolo[2,3-b]pyridin-5-yl)oxy)-N-((6-((((1r,4r)-4-hydroxy-4-methylcyclohexyl)methyl)amino)-5-nitropyridin-3-yl)sulfonyl)benzamide]
